The values below are quoted from earlier work in patent US11737981B2, “Cellulosic polymer nanoparticles and methods of forming them” (The Trustees of Princeton University, priority 2017, dated 2023).

In brackets after ≈: the same amount, converted by molar mass.

For the compound `CCC(C)n1ncn(-c2ccc(N3CCN(c4ccc(OCC5COC(Cn6cncn6)(c6ccc(Cl)cc6Cl)O5)cc4)CC3)cc2)c1=O` (stereo not drawn) [Itraconazole], the solubility in water was roughly 9.6 µg/mL (≈ 13.6 µM).
As for `CCCCN(CCCC)CC(O)c1cc(Cl)cc2c1-c1ccc(Cl)cc1/C2=C/c1ccc(Cl)cc1` (stereo not drawn) [Lumefantrine], the solubility in water entry is given as “about 0.031 mg/L”.
For the compound artefenomel mesylate [OZ439 mesylate], the solubility in water entry was “about 0.47 mg/L”.
